According to US11608323B2 (SYNGENTA LIMITED, priority 2013, dated 2023):

Assays:
Format in all cases: in vivo
[1] = system: ECHCG; experiment: Pre-emergence herbicidal activity, glasshouse pot test; settings: rate 1000 g/Ha, evaluated after 13 days, scale 0-5
Summary of the method: (§1)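 Seeds sown in standard soil in pots, sprayed one day later (pre-emergence) with aqueous solution from acetone/water (50:50) formulation with 0.5% Tween 20. Glasshouse at 24/16 °C day/night, 14 h light, 65% humidity, watered twice daily. Damage scored after 13 days, 0 (none) to 5 (total).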

[2] = system: SETFA; experiment: as above; settings: rate 1000 g/Ha, evaluated after 13 days, scale 0-5
Summary of the method: as §1

[3] = system: ALOMY; experiment: as above; settings: rate 1000 g/Ha, evaluated after 13 days, scale 0-5
Summary of the method: as §1

[4] = system: ABUTH; experiment: as above; settings: rate 1000 g/Ha, evaluated after 13 days, scale 0-5
Summary of the method: as §1

[5] = system: AMARE; experiment: as above; settings: rate 1000 g/Ha, evaluated after 13 days, scale 0-5
Summary of the method: as §1

[6] = system: ZEAMX; experiment: as above; settings: rate 1000 g/Ha, evaluated after 13 days, scale 0-5
Summary of the method: as §1

[7] = system: ECHCG; experiment: Post-emergence herbicidal activity, glasshouse pot test; settings: Echinochloa crus-galli; application post-emergence; rate 1000 g/Ha; evaluated after 13 days
Summary of the method: (§2)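 Visual herbicidal injury (0 = no damage, 5 = plant killed) recorded 13 days post-treatment. Treatment consisted of a single spray onto emerged seedlings at day 8; conditions before and after were 24/16 °C, 14 h light, 65% humidity.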

[8] = system: SETFA; experiment: as above; settings: Setaria faberi; application post-emergence; rate 1000 g/Ha; evaluated after 13 days
Summary of the method: as §2

[9] = system: ALOMY; experiment: as above; settings: Alopecurus myosuroides; application post-emergence; rate 1000 g/Ha; evaluated after 13 days
Summary of the method: as §2

[10] = system: ABUTH; experiment: as above; settings: Abutilon theophrasti; application post-emergence; rate 1000 g/Ha; evaluated after 13 days
Summary of the method: as §2

[11] = system: AMARE; experiment: as above; settings: Amaranthus retroflexus; application post-emergence; rate 1000 g/Ha; evaluated after 13 days
Summary of the method: as §2

[12] = system: ZEAMX; experiment: as above; settings: Zea mays; application post-emergence; rate 1000 g/Ha; evaluated after 13 days
Summary of the method: as §2

Row | Compound | ECHCG damage score, application pre-emergence [1] | SETFA damage score, application pre-emergence [2] | ALOMY damage score, application pre-emergence [3] | ABUTH damage score, application pre-emergence [4] | AMARE damage score, application pre-emergence [5] | ZEAMX damage score, application pre-emergence [6] | Post-emergence herbicidal activity ECHCG (damage score 0-5) [7] | Post-emergence herbicidal activity SETFA (damage score 0-5) [8] | Post-emergence herbicidal activity ALOMY (damage score 0-5) [9] | Post-emergence herbicidal activity ABUTH (damage score 0-5) [10] | Post-emergence herbicidal activity AMARE (damage score 0-5) [11] | Post-emergence herbicidal activity ZEAMX (damage score 0-5) [12]
1 | CCC1C(O)N(c2cc(C(F)(F)F)ccn2)C(=O)N1OC (single isomer, unassigned) [Compound A28] | 4 | 5 | 4 | 3 | 5 | 2 | 5 | 5 | 5 | 4 | 4 | 2
2 | CCOC1C(OC(=O)[C@@H]2CCCO2)N(c2cc(C(F)(F)F)ccn2)C(=O)N1C (stereo partly drawn) [Compound A100] | 3 | 3 | 4 | 5 | 5 | 1 | 5 | 5 | 5 | 5 | 5 | 4
3 | CCOC1C(OC(=O)[C@@H]2[C@@H](C=C(Cl)Cl)C2(C)C)N(c2cc(C(F)(F)F)ccn2)C(=O)N1C (stereo partly drawn) [Compound A98] | 0 | 0 | 0 | 0 | 0 | 0 | 0 | 0 | 0 | 0 | 4 | 1
4 | C=CCC1C(O)N(c2cc(C(F)(F)F)ccn2)C(=O)N1C (stereo not drawn) [Compound A32, 5-allyl-4-hydroxy-1-methyl-3-[4-(trifluoromethyl)-2-pyridyl]imidazolidin-2-one] | 5 | 4 | 4 | 5 | 5 | 2 | 5 | 5 | 5 | 5 | 5 | 2
5 | CC1C(O)N(c2cc(C(F)(F)F)c(Cl)cn2)C(=O)N1C (stereo not drawn) [Compound A49] | 4 | 4 | 4 | 5 | 5 | 3 | 5 | 5 | 5 | 5 | 5 | 4
6 | CCOC1C(OC(C)=O)N(c2cc(C(F)(F)F)ccn2)C(=O)N1C (stereo not drawn) [Compound A96] | 4 | 4 | 4 | 5 | 5 | 1 | 5 | 5 | 5 | 5 | 5 | 3
7 | CCOC1C(O)N(c2cc(C(F)(F)F)c(OC)cn2)C(=O)N1C (stereo not drawn) [Compound A10] | 5 | 5 | 4 | 5 | 5 | 3 | 5 | 5 | 5 | 5 | 5 | 4
8 | CCOC1C(O)N(c2cc(C(C)(C)F)ccn2)C(=O)N1C (stereo not drawn) [Compound A61] | 4 | 1 | 4 | 5 | 5 | 1 | 5 | 5 | 5 | 5 | 5 | 3
9 | CON1C(=O)N(c2cc(C(F)(F)F)c(C)cn2)C(O)C1C (single isomer, unassigned) [Compound A58] | 3 | 3 | 4 | 5 | 5 | 4 | 5 | 5 | 4 | 5 | 5 | 4
10 | CCOC1C(O)N(c2cc(C(F)(F)F)ccn2)C(=O)N1C (racemic) [Compound A6, 5-ethoxy-4-hydroxy-1-methyl-3-[4-(trifluoromethyl)-2-pyridyl]imidazolidin-2-one] | 4 | 5 | 4 | 5 | 5 | 2 | 5 | 5 | 5 | 5 | 5 | 2
